Experimental data reported in article PMC8048783, “CYP154C5 Regioselectivity in Steroid Hydroxylation Explored by Substrate Modifications and Protein Engineering” (Chembiochem, 2020).

Tests used:
CYP154C5 [1] = biological target: T1, CYP154C5 (Nocardia farcinica, UniProt Q5YNS8, Q398A); test: type I spectral shift titration, tight-binding fit
T1 construct: gene NFA_53110; full-length, N-terminal His-tag (pET28a(+), NdeI/HindIII), purified from E. coli C43(DE3)
Excerpt: (§1) type I spectral shift titration, tight-binding fit on CYP154C5

CYP154C5 [2] = biological target: T2, CYP154C5 (Nocardia farcinica, UniProt Q5YNS8, F92A); test: type I spectral shift titration, tight-binding fit
T2 construct: gene NFA_53110; full-length, N-terminal His-tag (pET28a(+), NdeI/HindIII), purified from E. coli C43(DE3)
Excerpt: as §1

CYP154C5 [3] = biological target: T3, CYP154C5 (Nocardia farcinica, UniProt Q5YNS8); test: biochemical; type: binding
T3 construct: gene NFA_53110; full-length, N-terminal His-tag (pET28a(+), NdeI/HindIII), purified from E. coli C43(DE3)

CYP154C5 [4] = biological target: T4, CYP154C5 (Nocardia farcinica, UniProt Q5YNS8, M84A); test: type I spectral shift titration, tight-binding fit
T4 construct: gene NFA_53110; full-length, N-terminal His-tag (pET28a(+), NdeI/HindIII), purified from E. coli C43(DE3)
Excerpt: as §1

CYP154C5 [5] = biological target: T5, CYP154C5 (Nocardia farcinica, UniProt Q5YNS8, Q239A); test: type I spectral shift titration, tight-binding fit
T5 construct: gene NFA_53110; full-length, N-terminal His-tag (pET28a(+), NdeI/HindIII), purified from E. coli C43(DE3)
Excerpt: as §1

T2 sequence (Q5YNS8 whole entry F92A): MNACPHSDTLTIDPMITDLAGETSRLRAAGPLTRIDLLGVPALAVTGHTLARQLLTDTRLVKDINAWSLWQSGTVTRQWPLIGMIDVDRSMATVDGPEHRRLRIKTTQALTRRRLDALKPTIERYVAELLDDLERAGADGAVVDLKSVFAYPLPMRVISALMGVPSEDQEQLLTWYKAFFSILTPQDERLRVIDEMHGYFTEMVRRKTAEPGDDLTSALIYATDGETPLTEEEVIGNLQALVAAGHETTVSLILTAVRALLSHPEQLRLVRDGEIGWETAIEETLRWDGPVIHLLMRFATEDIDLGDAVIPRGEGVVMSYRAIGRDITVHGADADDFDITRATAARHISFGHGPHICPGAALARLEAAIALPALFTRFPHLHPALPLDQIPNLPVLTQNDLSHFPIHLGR
T1 sequence (Q5YNS8 whole entry Q398A): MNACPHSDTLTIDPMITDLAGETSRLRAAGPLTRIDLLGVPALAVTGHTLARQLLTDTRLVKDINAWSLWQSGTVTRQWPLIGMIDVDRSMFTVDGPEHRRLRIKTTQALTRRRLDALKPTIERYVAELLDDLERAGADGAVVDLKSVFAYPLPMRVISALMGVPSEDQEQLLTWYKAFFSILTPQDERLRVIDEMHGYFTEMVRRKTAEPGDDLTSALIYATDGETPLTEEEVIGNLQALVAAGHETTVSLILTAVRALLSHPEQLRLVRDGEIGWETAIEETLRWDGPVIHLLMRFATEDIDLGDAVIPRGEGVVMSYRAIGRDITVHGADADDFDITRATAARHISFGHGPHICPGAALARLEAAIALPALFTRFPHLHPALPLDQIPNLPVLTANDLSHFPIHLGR
T3 sequence (Q5YNS8 entry or part of it): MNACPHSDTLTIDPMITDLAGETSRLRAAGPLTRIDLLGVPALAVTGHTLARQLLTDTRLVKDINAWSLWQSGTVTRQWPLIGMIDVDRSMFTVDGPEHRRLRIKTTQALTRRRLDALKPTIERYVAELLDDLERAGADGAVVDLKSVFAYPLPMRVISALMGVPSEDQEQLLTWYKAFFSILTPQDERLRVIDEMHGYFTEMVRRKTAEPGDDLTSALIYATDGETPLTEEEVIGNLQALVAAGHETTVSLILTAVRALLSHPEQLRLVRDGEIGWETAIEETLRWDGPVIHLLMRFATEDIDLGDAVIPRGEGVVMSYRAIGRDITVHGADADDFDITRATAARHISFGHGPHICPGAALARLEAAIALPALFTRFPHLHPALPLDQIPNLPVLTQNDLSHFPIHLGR
T4 sequence (Q5YNS8 whole entry M84A): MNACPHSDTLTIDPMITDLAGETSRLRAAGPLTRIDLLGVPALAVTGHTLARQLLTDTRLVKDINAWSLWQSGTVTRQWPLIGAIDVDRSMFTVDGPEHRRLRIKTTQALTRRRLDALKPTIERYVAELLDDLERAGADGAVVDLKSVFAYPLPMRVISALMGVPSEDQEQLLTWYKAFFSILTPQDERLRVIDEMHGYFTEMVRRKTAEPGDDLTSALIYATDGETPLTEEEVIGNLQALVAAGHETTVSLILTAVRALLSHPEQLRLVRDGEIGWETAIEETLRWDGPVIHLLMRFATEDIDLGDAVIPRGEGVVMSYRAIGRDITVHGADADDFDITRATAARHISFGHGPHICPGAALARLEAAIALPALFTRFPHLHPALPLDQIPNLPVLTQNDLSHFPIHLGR
T5 sequence (Q5YNS8 whole entry Q239A): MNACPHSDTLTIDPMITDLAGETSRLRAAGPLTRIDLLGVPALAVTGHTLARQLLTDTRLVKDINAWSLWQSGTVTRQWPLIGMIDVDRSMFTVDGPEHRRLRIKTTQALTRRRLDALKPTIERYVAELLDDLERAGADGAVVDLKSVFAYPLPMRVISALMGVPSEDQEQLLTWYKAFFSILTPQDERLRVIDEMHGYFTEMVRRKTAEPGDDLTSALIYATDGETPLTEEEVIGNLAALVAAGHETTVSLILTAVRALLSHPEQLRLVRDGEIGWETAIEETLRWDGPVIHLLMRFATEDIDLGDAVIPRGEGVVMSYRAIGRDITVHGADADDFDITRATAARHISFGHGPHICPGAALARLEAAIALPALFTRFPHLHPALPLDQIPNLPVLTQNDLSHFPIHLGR

Row | SMILES | Kd (CYP154C5 [1]) [nM] | Kd (CYP154C5 [2]) [nM] | Kd (CYP154C5 [3]) [nM] | Kd (CYP154C5 [4]) [µM] | Kd (CYP154C5 [5]) [nM]
1 | C[C@]12CC[C@H](O)CC1=CC[C@@H]1[C@@H]2CC[C@]2(C)C(=O)CC[C@@H]12 [compound 2, dehydroepiandrosterone] | 687 ± 43 | 1020 ± 32 | < 1 | – | –
2 | C[C@]12CCC(=O)C=C1CC[C@@H]1[C@@H]2CC[C@]2(C)C(=O)CC[C@@H]12 [compound 4, androstenedione] | – | 512 ± 17 | 12 ± 7 | 3.13 ± 0.234 | –
3 | C[C@]12CC[C@H]3[C@@H](CCC4=CC(=O)CC[C@@]43C)[C@@H]1CC[C@@H]2O [compound 5, testosterone] | 747 ± 45 | 1480 ± 33 | 18 ± 10 | 5.71 ± 0.161 | –
4 | CC(=O)[C@H]1CC[C@H]2[C@@H]3CCC4=CC(=O)CC[C@]4(C)[C@H]3CC[C@]12C [compound 3, progesterone] | 34 ± 21 | 209 ± 12 | 15 ± 10 | – | –
5 | C[C@@]12CCC[C@H]1[C@@H]1CC[C@H]3CC(=O)CC[C@]3(C)[C@H]1CC2 [compound 11, 5α‐androstan‐3‐one] | – | – | 20 ± 16 | – | –
6 | C[C@]12CC[C@H]3[C@@H](CCC4=CC(=O)CC[C@@H]43)[C@@H]1CC[C@@H]2O [compound 6, nandrolone] | – | – | 100 ± 17 | – | 13 ± 6
7 | CC(=O)[C@H]1CC[C@H]2[C@@H]3CC=C4C[C@@H](O)CC[C@]4(C)[C@H]3CC[C@]12C [compound 1, pregnenolone] | – | – | 62 ± 14 | – | –
8 | C[C@]12CCCCC1=CC[C@@H]1[C@@H]2CC[C@]2(C)C(=O)CC[C@@H]12 [compound 10, 3‐deoxydehydroepiandrosterone] | – | – | 94 ± 52 | – | –
